Assay results reported in a compilation of properties of binary mixtures (doi:10.1007/s10953-019-00842-w).

Assay: xn = mol fraction of the nth substance listed
Conditions: 101 kPa

CC[n+]1ccn(C)c1.O=S(=O)([O-])C(F)(F)F + CC1COC(=O)O1
viscosity [mPa·s]
Conditions	x1 = 0.0999	x1 = 0.1999	x1 = 0.3005	x1 = 0.3998	x1 = 0.5001	x1 = 0.601	x1 = 0.6987	x1 = 0.8004	x1 = 0.8998	x1 = 1
288.15 K	6.25	8.7	–	–	–	24.4	30.7	39.1	46.9	59.2
293.15 K	–	7.33	9.18	12.2	15.69	20.5	25.6	–	38.8	48.6
298.15 K	4.53	6.2	7.76	10.37	13.37	17.6	21.7	–	–	–
303.15 K	–	5.31	6.65	–	11.43	15.01	–	23.1	27.6	–
308.15 K	3.4	4.57	5.77	7.65	–	12.99	16.02	19.9	23.6	29
313.15 K	3.03	4.01	5.07	6.67	8.69	11.33	13.95	17.2	–	–
318.15 K	2.7	–	–	–	–	9.92	12.22	15.08	–	21.5
323.15 K	2.42	3.13	3.94	5.12	6.8	8.79	–	13.15	–	18.6
328.15 K	2.17	–	–	–	–	–	9.52	11.61	13.62	16.5
333.15 K	2.01	2.52	–	4.07	5.53	6.99	–	–	12.12	14.61
338.15 K	1.84	2.28	2.83	3.65	4.99	–	7.59	–	10.74	13.02
343.15 K	–	2.14	2.6	–	4.51	5.75	6.92	8.33	9.66	11.52
348.15 K	1.611	1.97	2.41	3.14	4.14	5.26	6.33	7.61	8.9	10.29
353.15 K	1.57	1.89	–	2.94	3.9	4.9	5.92	7.17	–	–

CC1COC(=O)O1 (stereo not given) + CC[n+]1ccn(C)c1.O=S(=O)([O-])C(F)(F)F
x2 = 0
Conditions	viscosity [mPa·s]
288.15 K	3.53
298.15 K	2.5
303.15 K	2.2
308.15 K	1.97
313.15 K	1.79
318.15 K	1.65
323.15 K	1.538
328.15 K	1.451
333.15 K	1.373
338.15 K	1.307
348.15 K	1.201
353.15 K	1.162
